In PubChem BioAssay AID1963854 (Molecular Pharmacology Branch, DTP, NCI, 2024):

System: 186277-243-T-J2-PDC complex spheroid viability
Assay: Anticancer human tumor 186277-243-T-J2-PDC patient-derived colon adenocarcinoma cell line growth inhibition [POLQ]
Conditions: for IC50: curve of first compound; for viability, T/C: stronger effect = lower value
Outline: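 Complex spheroid viability model combining PDC tumour cells with endothelial (HUVEC) and MSC stromal cells. Novobiocin, ART-558 or RP6685 were tested singly and in combination with standard and investigational anticancer drugs. Each was titrated in half-log steps from near clinical Cmax, or from 10 microM where Cmax was unknown.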

[1] = second compound 0.0316 µM, first compound 0.0316 µM
[2] = second compound 0.0316 µM, first compound 0.1 µM
[3] = second compound 0.0316 µM, first compound 0.316 µM
[4] = second compound 0.0316 µM, first compound 1 µM
[5] = second compound 0.1 µM, first compound 0.0316 µM
[6] = second compound 0.1 µM, first compound 0.1 µM
[7] = second compound 0.1 µM, first compound 0.316 µM
[8] = second compound 0.1 µM, first compound 1 µM
[9] = second compound 0.316 µM, first compound 0.0316 µM
[10] = second compound 0.316 µM, first compound 0.1 µM
[11] = second compound 0.316 µM, first compound 0.316 µM
[12] = second compound 0.316 µM, first compound 1 µM
[13] = second compound 1 µM, first compound 0.0316 µM
[14] = second compound 1 µM, first compound 0.1 µM
[15] = second compound 1 µM, first compound 0.316 µM
[16] = second compound 1 µM, first compound 1 µM
[17] = second compound 3.16 µM, first compound 0.0316 µM
[18] = second compound 3.16 µM, first compound 0.1 µM
[19] = second compound 3.16 µM, first compound 0.316 µM
[20] = second compound 3.16 µM, first compound 1 µM
[21] = second compound 10 µM, first compound 0.0316 µM
[22] = second compound 10 µM, first compound 0.1 µM
[23] = second compound 10 µM, first compound 0.316 µM
[24] = second compound 10 µM, first compound 1 µM
[25] = second compound 0.0316 µM, first compound 3.16 µM
[26] = second compound 0.0316 µM, first compound 10 µM
[27] = second compound 0.1 µM, first compound 3.16 µM
[28] = second compound 0.1 µM, first compound 10 µM
[29] = second compound 0.316 µM, first compound 3.16 µM
[30] = second compound 0.316 µM, first compound 10 µM
[31] = second compound 1 µM, first compound 3.16 µM
[32] = second compound 1 µM, first compound 10 µM
[33] = second compound 3.16 µM, first compound 3.16 µM
[34] = second compound 3.16 µM, first compound 10 µM
[35] = second compound 10 µM, first compound 3.16 µM
[36] = second compound 10 µM, first compound 10 µM
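Also: spheroids exposed to compounds for seven days.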
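For viability, T/C in this document: 100% = DMSO vehicle control viability.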

With `C=CCn1c(=O)c2cnc(Nc3ccc(N4CCN(C)CC4)cc3)nc2n1-c1cccc(C(C)(C)O)n1` + Nc1ccc(C#CCN(C(=O)Cc2ncc(C(F)(F)F)cc2C(F)(F)F)c2ccc(F)cc2)nn1 the IC50 (second compound 0.0316 µM) was 212 nM, the IC50 (second compound 0.1 µM) was 224 nM and the IC50 (second compound 0.316 µM) was 229 nM. For the same molecule, the IC50 (second compound 1 µM) was 214 nM, the IC50 (second compound 3.16 µM) was 211 nM and the IC50 (second compound 10 µM) was 204 nM. It also gave a viability, T/C (second compound 0.0316 µM, first compound 0.00316 µM) of 95%, a viability, T/C (second compound 0.0316 µM, first compound 0.01 µM) of 91.2% and a viability, T/C [1] of 86.9%. The viability, T/C [2] was 87.5%, the viability, T/C [3] was 30.1% and the viability, T/C [4] was 15.7%. For the same molecule, the viability, T/C (second compound 0.1 µM, first compound 0.00316 µM) was 94.8%, the viability, T/C (second compound 0.1 µM, first compound 0.01 µM) was 107% and the viability, T/C [5] was 109%. It also gave a viability, T/C [6] of 99.5%, a viability, T/C [7] of 28.8% and a viability, T/C [8] of 15.1%. For the same molecule, the viability, T/C (second compound 0.316 µM, first compound 0.00316 µM) was 88.5%, the viability, T/C (second compound 0.316 µM, first compound 0.01 µM) was 105% and the viability, T/C [9] was 93%. For the same molecule, the viability, T/C [10] was 101%, the viability, T/C [11] was 31.8% and the viability, T/C [12] was 14.4%. For the same molecule, the viability, T/C (second compound 1 µM, first compound 0.00316 µM) was 89.5%, the viability, T/C (second compound 1 µM, first compound 0.01 µM) was 101% and the viability, T/C [13] was 101%. For the same molecule, the viability, T/C [14] was 93%, the viability, T/C [15] was 28% and the viability, T/C [16] was 12%. For the same molecule, the viability, T/C (second compound 3.16 µM, first compound 0.00316 µM) was 109%, the viability, T/C (second compound 3.16 µM, first compound 0.01 µM) was 97.5% and the viability, T/C [17] was 110%. The viability, T/C [18] was 98.2%, the viability, T/C [19] was 23.7% and the viability, T/C [20] was 13.3%. It also gave a viability, T/C (second compound 10 µM, first compound 0.00316 µM) of 90.9%, a viability, T/C (second compound 10 µM, first compound 0.01 µM) of 98.1% and a viability, T/C [21] of 100%. The viability, T/C [22] was 96.5%, the viability, T/C [23] was 21.3% and the viability, T/C [24] was 11.2%.
With `CC1COCCN1c1cc(-c2ccnn2C)c2ccnc(-c3ccn[nH]3)c2n1` (stereo unspecified) + Nc1ccc(C#CCN(C(=O)Cc2ncc(C(F)(F)F)cc2C(F)(F)F)c2ccc(F)cc2)nn1 the IC50 (second compound 0.0316 µM) was 74 nM, the IC50 (second compound 0.1 µM) was 75.2 nM and the IC50 (second compound 0.316 µM) was 76.3 nM. It also gave an IC50 (second compound 1 µM) of 76.4 nM, an IC50 (second compound 3.16 µM) of 75.8 nM and an IC50 (second compound 10 µM) of 71.9 nM. For the same molecule, the viability, T/C [1] was 113%, the viability, T/C [2] was 27.5% and the viability, T/C [3] was 10.3%. It also gave a viability, T/C [4] of 7.67%, a viability, T/C [25] of 6.65% and a viability, T/C [26] of 7.86%. It also gave a viability, T/C [5] of 115%, a viability, T/C [6] of 28.8% and a viability, T/C [7] of 11%. It also gave a viability, T/C [8] of 7.38%, a viability, T/C [27] of 6.86% and a viability, T/C [28] of 9.94%. For the same molecule, the viability, T/C [9] was 126%, the viability, T/C [10] was 26.8% and the viability, T/C [11] was 9.95%. The viability, T/C [12] was 7.12%, the viability, T/C [29] was 6.81% and the viability, T/C [30] was 9.08%. The viability, T/C [13] was 124%, the viability, T/C [14] was 27.5% and the viability, T/C [15] was 9.34%. It also gave a viability, T/C [16] of 7.54%, a viability, T/C [31] of 6.88% and a viability, T/C [32] of 9.31%. It also gave a viability, T/C [17] of 123%, a viability, T/C [18] of 26.7% and a viability, T/C [19] of 9.31%. The viability, T/C [20] was 6.61%, the viability, T/C [33] was 8.2% and the viability, T/C [34] was 7.84%. It also gave a viability, T/C [21] of 118%, a viability, T/C [22] of 22.5% and a viability, T/C [23] of 9.8%. It also gave a viability, T/C [24] of 7.22%, a viability, T/C [35] of 6.51% and a viability, T/C [36] of 7.63%.
`CC1COCCN1c1cc(C2(S(C)(=N)=O)CC2)nc(-c2ccnc3[nH]ccc23)n1` (stereo unspecified) + Nc1ccc(C#CCN(C(=O)Cc2ncc(C(F)(F)F)cc2C(F)(F)F)c2ccc(F)cc2)nn1 was tested, and the IC50 (second compound 0.0316 µM) was 1810 nM, the IC50 (second compound 0.1 µM) was 1790 nM and the IC50 (second compound 0.316 µM) was 1890 nM. The IC50 (second compound 1 µM) was 1780 nM, the IC50 (second compound 3.16 µM) was 1660 nM and the IC50 (second compound 10 µM) was 1640 nM. The viability, T/C [1] was 103%, the viability, T/C [2] was 96.5% and the viability, T/C [3] was 102%. For the same molecule, the viability, T/C [4] was 88.1%, the viability, T/C [25] was 14.1% and the viability, T/C [26] was 9.47%. It also gave a viability, T/C [5] of 97.2%, a viability, T/C [6] of 90.5% and a viability, T/C [7] of 93%. It also gave a viability, T/C [8] of 85.9%, a viability, T/C [27] of 14.8% and a viability, T/C [28] of 10.2%. It also gave a viability, T/C [9] of 109%, a viability, T/C [10] of 102% and a viability, T/C [11] of 110%. It also gave a viability, T/C [12] of 93.6%, a viability, T/C [29] of 14.8% and a viability, T/C [30] of 10.7%. The viability, T/C [13] was 99.4%, the viability, T/C [14] was 105% and the viability, T/C [15] was 98.8%. The viability, T/C [16] was 84.8%, the viability, T/C [31] was 15.2% and the viability, T/C [32] was 8.83%. It also gave a viability, T/C [17] of 109%, a viability, T/C [18] of 104% and a viability, T/C [19] of 118%. The viability, T/C [20] was 78.7%, the viability, T/C [33] was 15% and the viability, T/C [34] was 8.91%. For the same molecule, the viability, T/C [21] was 105%, the viability, T/C [22] was 94.5% and the viability, T/C [23] was 97.6%. The viability, T/C [24] was 77.1%, the viability, T/C [35] was 14.3% and the viability, T/C [36] was 8.26%.
